Measured values taken from patent publication US10513521B2, “Compositions and methods for inhibiting BMP” (The Brigham and Women's Hospital, Inc., priority 2014, dated 2019).
pIC50: −log10 of the molar value. Where two headings read alike, the source gives them in different places.

Tests used:
[1] = target: ALK1 (Homo sapiens, UniProt P37023); assay: TR-FRET enzymatic ALK kinase assay, ALK1
Experimental: (§1) Briefly, the ALKs enzymatic assay was initiated by dispense 2.5 μl enzyme in 1× kinase reaction buffer. The assay plate was then added with compounds followed by incubation at room temperature for 10 minutes. Then 2.5 μl/well substrate was added.

[2] = target: T1, ALK2 (Homo sapiens, UniProt Q04771); assay: TR-FRET enzymatic ALK kinase assay, ALK2
T1 sequence (Q04771 21-509): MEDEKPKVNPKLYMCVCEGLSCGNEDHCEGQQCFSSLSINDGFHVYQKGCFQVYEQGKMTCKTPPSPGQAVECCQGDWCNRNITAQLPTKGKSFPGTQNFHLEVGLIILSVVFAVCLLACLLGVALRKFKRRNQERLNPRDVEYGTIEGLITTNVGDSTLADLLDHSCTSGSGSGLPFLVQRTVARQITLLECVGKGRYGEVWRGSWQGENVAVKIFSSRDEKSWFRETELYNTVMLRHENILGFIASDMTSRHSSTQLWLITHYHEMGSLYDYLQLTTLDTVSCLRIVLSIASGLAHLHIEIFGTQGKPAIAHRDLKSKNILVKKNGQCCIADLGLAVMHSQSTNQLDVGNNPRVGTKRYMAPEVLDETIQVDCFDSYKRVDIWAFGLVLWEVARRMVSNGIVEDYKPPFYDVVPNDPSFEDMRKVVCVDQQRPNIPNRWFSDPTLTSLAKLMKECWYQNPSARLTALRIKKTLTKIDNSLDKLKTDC
Experimental: as §1

[3] = target: ALK3 (Homo sapiens, UniProt P36894); assay: TR-FRET enzymatic ALK kinase assay, ALK3
Chain of ALK3 (P36894 24-532): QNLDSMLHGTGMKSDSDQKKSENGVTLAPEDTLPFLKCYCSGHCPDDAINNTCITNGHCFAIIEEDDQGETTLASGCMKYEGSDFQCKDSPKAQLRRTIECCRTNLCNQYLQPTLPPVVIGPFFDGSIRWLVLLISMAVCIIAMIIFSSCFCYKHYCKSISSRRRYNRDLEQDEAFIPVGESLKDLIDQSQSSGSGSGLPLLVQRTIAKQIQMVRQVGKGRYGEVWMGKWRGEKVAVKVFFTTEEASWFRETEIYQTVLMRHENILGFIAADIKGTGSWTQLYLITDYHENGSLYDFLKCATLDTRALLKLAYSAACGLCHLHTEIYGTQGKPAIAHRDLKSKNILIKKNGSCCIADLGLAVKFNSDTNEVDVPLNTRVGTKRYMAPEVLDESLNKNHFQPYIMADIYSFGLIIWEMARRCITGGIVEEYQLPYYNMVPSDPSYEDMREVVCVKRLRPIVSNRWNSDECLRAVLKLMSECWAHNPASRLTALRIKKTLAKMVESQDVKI
Experimental: as §1

[4] = target: T2, ALK4 (Homo sapiens, UniProt P36896); assay: TR-FRET enzymatic ALK kinase assay, ALK4
T2 sequence (P36896 24-505): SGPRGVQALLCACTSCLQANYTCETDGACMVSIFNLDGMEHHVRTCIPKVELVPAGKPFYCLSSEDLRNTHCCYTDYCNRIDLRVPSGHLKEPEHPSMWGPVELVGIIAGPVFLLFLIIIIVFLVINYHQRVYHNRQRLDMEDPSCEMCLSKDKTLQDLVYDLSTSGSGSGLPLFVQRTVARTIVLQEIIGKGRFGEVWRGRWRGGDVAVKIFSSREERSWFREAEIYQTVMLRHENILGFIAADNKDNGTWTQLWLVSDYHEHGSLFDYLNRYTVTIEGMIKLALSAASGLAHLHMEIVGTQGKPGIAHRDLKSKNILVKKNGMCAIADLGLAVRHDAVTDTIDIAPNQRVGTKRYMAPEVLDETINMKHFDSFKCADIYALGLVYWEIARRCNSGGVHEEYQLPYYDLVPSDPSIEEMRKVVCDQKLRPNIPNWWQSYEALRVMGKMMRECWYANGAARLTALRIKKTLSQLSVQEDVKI
Experimental: as §1

[5] = target: T3, ALK5 (Homo sapiens, UniProt P36897); assay: TR-FRET enzymatic ALK kinase assay, ALK5
T3 sequence (P36897 34-503): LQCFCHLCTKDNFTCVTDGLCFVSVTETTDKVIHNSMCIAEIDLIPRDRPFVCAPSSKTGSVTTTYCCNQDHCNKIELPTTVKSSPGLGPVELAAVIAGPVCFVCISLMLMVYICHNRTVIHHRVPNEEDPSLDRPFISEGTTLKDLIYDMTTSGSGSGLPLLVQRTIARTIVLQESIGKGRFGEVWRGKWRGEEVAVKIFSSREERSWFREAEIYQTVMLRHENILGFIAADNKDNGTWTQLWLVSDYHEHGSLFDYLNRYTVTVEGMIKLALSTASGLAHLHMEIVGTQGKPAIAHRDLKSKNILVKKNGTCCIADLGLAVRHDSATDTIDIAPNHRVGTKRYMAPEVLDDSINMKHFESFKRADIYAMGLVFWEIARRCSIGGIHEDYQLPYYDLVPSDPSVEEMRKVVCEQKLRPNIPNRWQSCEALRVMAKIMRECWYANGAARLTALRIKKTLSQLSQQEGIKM
Experimental: Six ALK kinase enzyme assays were developed for determination of compound activities on ALK1, ALK2, ALK3, ALK4, ALK5 and ALK6.
as §1

[6] = target: ALK6 (Homo sapiens, UniProt O00238); assay: TR-FRET enzymatic ALK kinase assay, ALK6
Chain of ALK6 (O00238 14-502): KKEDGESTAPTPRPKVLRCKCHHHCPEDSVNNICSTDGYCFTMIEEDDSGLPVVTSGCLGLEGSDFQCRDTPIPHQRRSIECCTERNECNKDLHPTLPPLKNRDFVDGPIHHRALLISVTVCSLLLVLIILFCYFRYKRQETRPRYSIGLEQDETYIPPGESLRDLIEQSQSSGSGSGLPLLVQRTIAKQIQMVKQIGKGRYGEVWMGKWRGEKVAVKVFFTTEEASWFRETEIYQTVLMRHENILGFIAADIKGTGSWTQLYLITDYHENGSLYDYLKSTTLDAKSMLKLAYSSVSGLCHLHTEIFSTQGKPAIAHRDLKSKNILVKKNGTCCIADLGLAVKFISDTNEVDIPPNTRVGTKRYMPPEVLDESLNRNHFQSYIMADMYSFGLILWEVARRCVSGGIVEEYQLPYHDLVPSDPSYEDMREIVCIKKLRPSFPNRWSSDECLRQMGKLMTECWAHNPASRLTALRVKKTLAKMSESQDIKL
Experimental: as §1

Chain of ALK1 (P37023 22-503): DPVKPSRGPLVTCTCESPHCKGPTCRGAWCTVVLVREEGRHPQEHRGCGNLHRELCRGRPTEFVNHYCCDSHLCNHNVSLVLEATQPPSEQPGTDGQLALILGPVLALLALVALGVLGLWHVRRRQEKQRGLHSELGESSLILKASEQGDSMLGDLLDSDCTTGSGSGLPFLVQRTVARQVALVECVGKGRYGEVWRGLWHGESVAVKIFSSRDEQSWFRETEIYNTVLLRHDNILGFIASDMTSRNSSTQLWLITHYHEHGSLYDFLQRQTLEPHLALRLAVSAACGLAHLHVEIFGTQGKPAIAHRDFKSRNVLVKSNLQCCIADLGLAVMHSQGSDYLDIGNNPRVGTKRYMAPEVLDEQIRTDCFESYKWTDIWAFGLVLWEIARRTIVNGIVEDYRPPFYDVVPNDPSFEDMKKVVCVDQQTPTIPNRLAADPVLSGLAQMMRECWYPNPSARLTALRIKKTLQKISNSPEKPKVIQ

Compound | pIC50 [1] | pIC50 [2] | pIC50 [3] | pIC50 [4] | pIC50 [5] | pIC50 [6] | other results
(3R)-1-((1-(4-(3-(3-(1-amino-2,2,2-trifluoroethyl)phenyl)pyrazolo[1,5-a]pyrimidin-6-yl)phenoxy)cyclopropyl)methyl)-3-methylpyrrolidin-3-ol [Compound 185] | – | – | – | – | – | – | pIC50 ([1]; read-out: Kinase Assay ALK1, enzyme assay): 6.27; pIC50 ([2]; read-out: Kinase Assay ALK2, enzyme assay): 7.36; pIC50 ([3]; read-out: Kinase Assay ALK3, enzyme assay): 5.74; pIC50 ([4]; read-out: Kinase Assay ALK4, enzyme assay): < 5.00; pIC50 ([5]; read-out: Kinase Assay ALK5, enzyme assay): < 5.00; pIC50 ([6]; read-out: Kinase Assay ALK6, enzyme assay): < 5.00
C[C@@H](O)c1cccc(-c2cnn3cc(-c4ccc(CCN5CCCC5)cc4)cnc23)c1 [Compound 156, (R)-1-(3-(6-(4-(2-(pyrrolidin-1-yl)ethyl)phenyl)pyrazolo[1,5-a]pyrimidin-3-yl)phenyl)ethanol] | 6.08 | 6.80 | 5.21 | < 5.00 | < 5.00 | < 5.00 | –
CC(N)c1ccc(-c2cnc3c(-c4cccc(C(C)O)c4)cnn3c2)cc1 (centres unmarked) [Compound 188, 1-(3-(6-(4-(1-aminoethyl)phenyl)pyrazolo[1,5-a]pyrimidin-3-yl)phenyl)ethanol] | 6.01 | 7.14 | 5.33 | 5.39 | < 5.00 | 5.09 | –
C[S+](=O)([O-])c1cccc(-c2cnn3cc(-c4ccc(CCN5CCC6(CC5)CNC6)cc4)cnc23)c1 [Compound 178, 6-(4-(2-(2,7-diazaspiro[3.5]nonan-7-yl)ethyl)phenyl)-3-(3-(methylsulfonyl)phenyl)pyrazolo[1,5-a]pyrimidine] | < 5.00 | 7.04 | < 5.00 | < 5.00 | < 5.00 | < 5.00 | –
C[C@@H]1CNC[C@H](C)N1c1ccc(-c2cnc3c(-c4cccc5c(S(=O)(=O)N(C)C)cccc45)cnn3c2)cc1 [Compound 40, 5-(6-(4-((2R,6S)-2,6-dimethylpiperazin-1-yl)phenyl)pyrazolo[1,5-a]pyrimidin-3-yl)-N,N-dimethylnaphthalene-1-sulfonamide] | < 5.00 | 5.49 | < 5.00 | < 5.00 | < 5.00 | < 5.00 | –
Cc1cc(S(N)(=O)=O)ccc1-c1cnn2cc(-c3ccc(N4[C@H](C)CNC[C@@H]4C)cc3)cnc12 [Compound 36, 4-(6-(4-((2R,6S)-2,6-dimethylpiperazin-1-yl)phenyl)pyrazolo[1,5-a]pyrimidin-3-yl)-3-methylbenzenesulfonamide] | 5.02 | 5.52 | – | – | – | – | –
CC1CCN(c2ccc(-c3cnc4c(-c5ccc(S(N)(=O)=O)c6ccccc56)cnn4c3)cn2)CC1 [Compound 47, 4-(6-(6-(4-methylpiperidin-1-yl)pyridin-3-yl)pyrazolo[1,5-a]pyrimidin-3-yl)naphthalene-1-sulfonamide] | 5.24 | 5.54 | < 5.00 | < 5.00 | < 5.00 | < 5.00 | –
C[C@@H](O)c1cccc(-c2cnn3cc(-c4ccc(CCN5CCCC(O)C5)cc4)cnc23)c1 (some centres unmarked) [Compound 157] | 6.12 | 6.92 | 5.23 | < 5.00 | < 5.00 | < 5.00 | –
NC(c1ccc(-c2cnn3cc(-c4ccc(OCCN5CCCCC5)cc4)cnc23)cc1)C(F)(F)F (centres unmarked) [Compound 144, 2,2,2-trifluoro-1-(4-(6-(4-(2-(piperidin-1-yl)ethoxy)phenyl)pyrazolo[1,5-a]pyrimidin-3-yl)phenyl)ethanamine] | < 5.00 | < 5.00 | < 5.00 | < 5.00 | < 5.00 | < 5.00 | –
c1ccc2c(-c3cnn4cc(-c5ccc(N6CCNCC6)cc5)cnc34)ccnc2c1 [Compound A, reference compound] | – | – | – | – | – | – | activity in the higher ATP concentrations (concentration-response curves) ([1]; ALK1, in the presence of 10, 100, or 1,000 µM ATP, FIG. 3): reduced; activity in the higher ATP concentrations (concentration-response curves) ([2]; ALK2, in the presence of 10, 100, or 1,000 µM ATP, FIG. 3): reduced
Cc1cc(-c2cnn3cc(-c4ccc(N5[C@H](C)CNC[C@@H]5C)cc4)cnc23)ccc1S(N)(=O)=O [Compound 37, 4-(6-(4-((2R,6S)-2,6-dimethylpiperazin-1-yl)phenyl)pyrazolo[1,5-a]pyrimidin-3-yl)-2-methylbenzenesulfonamide] | 6.09 | – | – | – | – | – | –
CC(N)c1ccc(-c2cnc3c(-c4ccc(S(N)(=O)=O)c5ccccc45)cnn3c2)cc1 (centres unmarked) [Compound 189, 4-(6-(4-(1-aminoethyl)phenyl)pyrazolo[1,5-a]pyrimidin-3-yl)naphthalene-1-sulfonamide] | 6.46 | – | – | < 5.00 | < 5.00 | < 5.00 | –
C[C@@H]1CNC[C@H](C)N1c1ccc(-c2cnc3c(-c4ccc(S(N)(=O)=O)cc4)cnn3c2)cc1 [Compound 38, 4-(6-(4-((2R,6S)-2,6-dimethylpiperazin-1-yl)phenyl)pyrazolo[1,5-a]pyrimidin-3-yl)benzenesulfonamide] | 5.75 | – | – | – | – | – | –

Second part, led by results:

pIC50 [1] | pIC50 [2] | pIC50 [3] | pIC50 [4] | pIC50 [5] | pIC50 [6] | Compound | other results
6.43 | 7.05 | 5.32 | < 5.00 | < 5.00 | < 5.00 | CS(=O)(=O)c1cccc(-c2cnn3cc(-c4ccc(C5CCCNC5)cc4)cnc23)c1 (centres unmarked) [Compound 139, 3-(3-(methylsulfonyl)phenyl)-6-(4-(piperidin-3-yl)phenyl)pyrazolo[1,5-a]pyrimidine] | –
6.55 | 7.28 | 5.82 | < 5.00 | < 5.00 | 5.24 | CS(=O)(=O)c1cccc(-c2cnn3cc(-c4ccc(OC5(CN6CCNCC6)CC5)cc4)cnc23)c1 [Compound 169, 3-(3-(methylsulfonyl)phenyl)-6-(4-(1-(piperazin-1-ylmethyl)cyclopropoxy)phenyl)pyrazolo[1,5-a]pyrimidine] | –
6.21 | 6.89 | < 5.00 | < 5.00 | < 5.00 | < 5.00 | CC(O)c1cccc(-c2cnn3cc(-c4ccc(C5CCNC5)cc4)cnc23)c1 (centres unmarked) [Compound 130, 1-(3-(6-(4-(pyrrolidin-3-yl)phenyl)pyrazolo[1,5-a]pyrimidin-3-yl)phenyl)ethanol] | –
6.57 | 7.48 | 5.82 | < 5.00 | < 5.00 | 5.02 | CS(=O)(=O)c1cccc(-c2cnn3cc(-c4ccc(OC5(CN6CCCC6)CC5)cc4)cnc23)c1 [Compound 170, 3-(3-(methylsulfonyl)phenyl)-6-(4-(1-(pyrrolidin-1-ylmethyl)cyclopropoxy)phenyl)pyrazolo[1,5-a]pyrimidine] | –
6.17 | 6.82 | < 5.00 | < 5.00 | < 5.00 | < 5.00 | CC(O)c1cccc(-c2cnn3cc(-c4ccc(C5CCCCN5)cc4)cnc23)c1 (centres unmarked) [Compound 135, 1-(3-(6-(4-(piperidin-2-yl)phenyl)pyrazolo[1,5-a]pyrimidin-3-yl)phenyl)ethanol] | –
6.88 | 7.64 | 6.77 | – | – | 6.95 | C[C@@H]1CNC[C@H](C)N1c1ccc(-c2cnc3c(-c4cccc5c(-c6nn[nH]n6)cccc45)cnn3c2)cc1 [Compound 28, 3-(5-(1H-tetrazol-5-yl)naphthalen-1-yl)-6-(4-((2R,6S)-2,6-dimethylpiperazin-1-yl)phenyl)pyrazolo[1,5-a]pyrimidine] | –
